Data set [1] can be described thus: in vivo. Conditions: mouse. On the procedure:
(§1) All animal studies were performed under the approval of the University of Miami Institutional Animal Care and Use committee. […] For tumor-bearing experiments, DLBCL PDX DFBL-75549 tumor model was obtained and engrafted mice through surgical dorsal tumor implantation. Tumor volume (TV) was measured by ultrasound (Vevo 3100, Visualsonics) with a predetermined survival endpoint of TV>1500 mm3. A continuous body weight loss of >20% was also a predetermined survival endpoint. For dose-finding experiments, mice were dosed intravenously on day 0, day 14, and day 24 and observed for changes in body weight. For R-nanoCHOP vs. R-CHOP tumor-bearing experiments, mice were dosed with all drugs intravenously once on day 1 of every 21 days, with exception to Prednisone administered orally. The following drug doses were used: Rituximab 20 mg/kg, Cyclophosphamide 40 mg/kg, Doxorubicin 3.3 mg/kg, CDT 33 mg/kg, Vincristine 0.5 mg/kg, Prednisone 0.2 mg/kg.
Formalin-fixed paraffin-embedded tissue sections, produced per standard protocols, were used to make H&E-stained and immunohistochemistry (IHC) pathology slides. Antibodies were used as per above, when applicable.

For data set [2], the system named is DLBCL PDX tumor. Conditions: mouse, in vivo. On the procedure: as §1
Data set [3] deals with murine B-lymphoma line A20. The data set can be described thus: 48-hour viability assay of A20 cells. Conditions: Mus musculus. The data set is classed as cell-based. As for the experimental part:
(§2) For 24-48 hr assessments, cells were seeded at 5000 cells per well in a 96-well plate under serial drug dilutions. For delayed drug effect viability, cells were seeded at 500,000 cells per well in a 6-well plate on day 0 and treated with drug for 24 hrs, after which cells were washed ×2 and plated in normal cell media without drug. Viability was assessed using Cell Titer Glo (Promega #G7573) according to manufacturer's protocol. Luminescence was measured using BioTek Synergy HT plate reader. EC50s were calculated using nonlinear fit regression analysis in GraphPad Prism 8. Apoptosis assessment was conducted with BD Biosciences reagent (#559763) using Attune NxT flow cytometer.

In data set [4] the test system is BJAB cells. The data set can be described thus: Fluorescent confocal microscopy, nuclear colocalization in BJAB. The data set is classed as cell-based, human. As to conditions: 24 hours. On the procedure: Cells were seeded at 50,000 cells per well in a 12-well plate and treated with either vehicle or drug. BJAB cells were fixed with 4% paraformaldehyde and permeabilized with 1% NP40 followed by staining for DAPI (Thermofisher Scientific, Waltham, Mass., USA). Cells were then imaged (60×) using a Leica DM4 B microscope. HEK293 cells had the nucleus stained for DAPI (Thermo #R37605) or GFP (Thermo #C10602) per the manufacturer protocol. Cells were live-imaged (63× objective) using Leica Sp5 confocal microscop and images collected and analyzed using ImageJ software.

The test system of data set [5] is BJAB, Farage, SU-DHL4, and Riva cells. The data set can be described thus: Delayed drug effect viability: 24 h drug, washout, viability tracking over 6 days. The data set is classed as cell-based, human. As for the experimental part:
as §2

Data set [6] concerns BJAB and Farage cells. Description: 48-hour viability with TFRC overexpression, holo-TF competition or dynasore. The data set is classed as cell-based, human. Conditions: 15 μM, 50 μM. On the procedure: as §2
Human TFRC cDNA (HsCD00044911) was purchased from the DNASU Plasmid Repository (Tempe, Ariz., USA) and was subsequently cloned into pLVX-IRES-ZsGreenl vector (Clontech Laboratories, Mountain View, Calif., USA). Recombinant plasmids, together with packaging/envelope plasmids psPAX2 and pMD2.G (Addgene, Cambridge, Mass., USA), were co-transfected into HEK293 cells using Lipofectamine 3000 (Invitrogen, Carlsbad, Calif., USA) following manufacturer's instructions. Cell media was changed at 24 hours after transfection, and viral particles collected at 48 hours and 72 hours post transfection.
For viral transduction, BJAB and Farage cells were infected with harvested virus by spinoculation. […]

Each structure is given as a SMILES string.

In turn, `COc1cccc2c1C(=O)c1c(O)c3c(c(O)c1C2=O)C[C@@](O)(C(=O)CO)C[C@@H]3O[C@H]1C[C@H](N)[C@H](O)[C@H](C)O1` [Dox, doxorubicin] yielded an MTD in data set [1] (male, NOD scid gamma (NSG), iv) of 3.3 mg/kg. Further, the “weight loss at MTD” value in data set [1] is ~20%. For the same compound, in data set [2], the “anti-tumor efficacy (OS and tumor volume)” value is reported as “relatively weak antitumor activity”; the “body weight after two additional doses” value is given as “irreversible weight loss”; the body weight nadir is 8 days; the “return to starting weight” value was in the range of 10 to 14 days. In addition, the concentration giving a half-maximal response (EC50) in data set [3] was found to be 10.6 nM. Besides, in data set [4], the nuclear colocalization entry was “similar”. The “cell viability over time-course after washout” value in data set [5] is given as “seen only with much higher doses”.

Consider `O=C(N/N=C/c1ccc(O)c(O)c1)c1cc2ccccc2cc1O` [dynasore, Dynasore], for which the “viability, single agent” value in data set [6] is “negatively affected viability”.

These data come from patent publication US20220387621A1, “TARGETED DELIVERY OF NANOCARRIER-CONJUGATED DOXORUBICIN” (priority 2019, published 2022).
